The subject of data set [1] is Human immunodeficiency virus 1. Briefly: Concentration that inhibits Human Immunodeficiency Virus Type 1 (HIV-1)-induced death of MT-2 cells. In kind it is functional, MT2. Conditions: read-out: ED50 (the source's name).
Data set [2] concerns MT2. Briefly: Lethal dose (LD5) concentration inhibiting growth of MT-2 cells by 5%. In kind it is toxicity, cell-based. Conditions: human.
For data set [3], the target named is Human immunodeficiency virus type 1 integrase (Human immunodeficiency virus 1, UniProt Q7ZJM1).
Description: Inhibitory activity against Human Immunodeficiency Virus Type 1 integrase (HIV-1 IN) in the disintegration assay.
The subject of data set [4] is Human immunodeficiency virus 1. The following applies: read-out: ED50.
Data set [5] has as its system Human immunodeficiency virus 1. Briefly: microbe, parasite or virus in culture. The following applies: Human immunodeficiency virus 1, read-out: ED50.
Data set [6] has as its system Human immunodeficiency virus 1. The following applies: read-out: ED50. The source holds these as a separate data set.
[7] abbreviates: Human immunodeficiency virus 1, MT2.

The structures appear in SMILES notation.

On to `O=C(/C=C\c1ccc(O)c(O)c1)OC1CCC(OC(=O)/C=C\c2ccc(O)c(O)c2)CC1` (stereo not drawn), for which the EC50 in data set [1] (setting [7]) was greater than 45 µM. The compound also displayed an LD5 in data set [2] of 20.5 µM. Also, in data set [3], it took 1.01 µM to reach half-maximal inhibition (IC50).

As to `COc1ccc(/C=C/C(=O)OC(C(=O)O)C(OC(=O)/C=C/c2ccc(OC)c(OC)c2)C(=O)O)cc1OC` (stereo not drawn), in data set [1] (setting [7]), the EC50 is greater than 178 µM. The LD5 in data set [2] came out at 89 µM.

As to `O=C(Cc1ccc(O)c(O)c1)OC(C(=O)O)C(OC(=O)Cc1ccc(O)c(O)c1)C(=O)O` (stereo not drawn), the EC50 was 15.6 µM in data set [4], greater than 62.5 µM in data set [5] and 35 µM in data set [1]. Further, in data set [2], the LD5 turned out to be 70 µM. Besides, the IC50 in data set [3] is 0.88 µM.

For the compound `O=C(/C=C/c1ccc(O)cc1)OC(C(=O)O)C(OC(=O)/C=C/c1ccc(O)cc1)C(=O)O` (stereo not drawn), the EC50 in data set [1] (setting [7]) is greater than 227 µM. The compound also came in with an LD5 in data set [2] of 114 µM.

In the case of `O=C(O)[C@]1(O)C[C@@H](O)[C@@H](O)[C@H](O)C1` [QUINIC ACID], in data set [1] (setting [7]), the EC50 was greater than 1820 µM. Besides, the LD5 in data set [2] was found to be 907 µM.

In the case of `O=C(/C=C\c1ccc(O)c(O)c1)OC1CCCCC1OC(=O)/C=C\c1ccc(O)c(O)c1` (stereo not drawn), the EC50 in data set [1] (setting [7]) is greater than 90.9 µM. The LD5 in data set [2] is 22.7 µM. For the same compound, 8.36 µM corresponded to half-maximal inhibition in data set [3] (IC50).

Consider `O=C(/C=C/c1ccc(O)c(O)c1)O[C@@H]1CC(OC(=O)/C=C/c2ccc(O)c(O)c2)(C(=O)O)C[C@@H](O)C1O` (single isomer, unassigned) [CYNARIN], for which, in data set [1] (setting [7]), the EC50 worked out at 4 µM. The LD5 in data set [2] is 145 µM. The same compound registered an IC50 in data set [3] of 1.6 µM.

`O=C(/C=C/c1ccc(O)c(O)c1)Oc1cc(OC(=O)/C=C/c2ccc(O)c(O)c2)cc(C(=O)O)c1`: the EC50 in data set [1] (setting [7]) is greater than 75 µM. In data set [2], this compound had an LD5 of 100 µM. The same compound had an IC50 in data set [3] of 6.9 µM.

For the compound `O=C(/C=C/c1ccc(O)c(O)c1)OCCOC(=O)/C=C/c1ccc(O)c(O)c1`, the EC50 in data set [1] (setting [7]) was greater than 388 µM. This compound also showed an LD5 in data set [2] of 194 µM. This compound also displayed an IC50 in data set [3] greater than 10 µM.

Regarding `O=C(OC(C(=O)O)C(OC(=O)c1cc(O)cc(O)c1)C(=O)O)c1cc(O)cc(O)c1` (stereo not drawn), the EC50 in data set [1] (setting [7]) is greater than 119 µM. Besides, the LD5 in data set [2] is greater than 119 µM.

`O=C(/C=C/c1ccc(O)c(O)c1)O[C@@H]1C[C@](O)(C(=O)O)C[C@@H](OC(=O)/C=C/c2ccc(O)c(O)c2)[C@H]1O`: in data set [1] (setting [7]), the EC50 stood at 2 µM. In data set [2], this compound yielded an LD5 of 290 µM. This compound also displayed a half-inhibitory concentration (IC50) in data set [3] of 1.3 µM.

Consider `O=C(/C=C/c1ccc(O)c(O)c1)OC(C(=O)OC(c1ccccc1)c1ccccc1)C(OC(=O)/C=C/c1ccc(O)c(O)c1)C(=O)OC(c1ccccc1)c1ccccc1` (stereo not drawn), for which the EC50 in data set [1] (setting [7]) was greater than 37.2 µM. Besides, the LD5 in data set [2] amounted to 16.1 µM.

Take `O=C(/C=C/c1ccc(O)c(O)c1)OC1C[C@](O)(C(=O)O)C[C@@H](O)[C@H]1OC(=O)/C=C/c1ccc(O)c(O)c1` (stereo partly drawn): in data set [1] (setting [7]), the EC50 was 4 µM. In data set [2], this compound showed an LD5 of 145 µM. Moreover, the IC50 in data set [3] stood at 0.6 µM.

Regarding `O=C(/C=C/c1ccc(O)c(O)c1)OC1CCC(OC(=O)/C=C/c2ccc(O)c(O)c2)CC1` (stereo not drawn), in data set [1] (setting [7]), the EC50 was greater than 341 µM. In addition, in data set [2], the LD5 was 170 µM. In data set [3], the half-inhibitory concentration (IC50) came to 1.03 µM.

Take `O=C(/C=C/c1ccc(O)c(O)c1)O[C@@H]1C[C@](O)(C(=O)O)C[C@@H](O)[C@H]1O` [CHLOROGENIC ACID]: the EC50 in data set [1] (setting [7]) was greater than 497 µM. The compound further yielded an LD5 in data set [2] of 249 µM.

Regarding `O=C(/C=C/c1ccc(O)c(O)c1)O[C@@H]1C[C@@](O)(C(=O)O)CC(O)[C@@H]1OC(=O)/C=C/c1ccc(O)c(O)c1` (stereo partly drawn), the EC50 in data set [1] (setting [7]) was determined as 12 µM. This compound also gave an LD5 in data set [2] of 116 µM. The IC50 in data set [3] stood at 1.4 µM.

With `O=C(OC(C(=O)O)C(OC(=O)c1cc(O)c(O)c(O)c1)C(=O)O)c1cc(O)c(O)c(O)c1` (stereo not drawn), the EC50 is 0.29 µM in data set [4], 0.66 µM in data set [1] and 31.2 µM in data set [6]. The compound also displayed an LD5 in data set [2] of 2.7 µM. Further, the IC50 in data set [3] worked out at 0.97 µM.

The compound `O=C(/C=C/c1ccc(O)c(O)c1)OC(C(=O)O)C(OC(=O)/C=C/c1ccc(O)c(O)c1)C(=O)O` (stereo in doubt; 1 (L)) registered an LD5 in data set [2] of 264 µM.

Take `O=C(O)/C=C/c1ccc(O)c(O)c1` [CAFFEIC ACID]: the EC50 in data set [1] (setting [7]) was greater than 1390 µM. This compound yielded an LD5 in data set [2] of 1389 µM.

The compound `O=C(/C=C/c1ccccc1)OC(C(=O)O)C(OC(=O)/C=C/c1ccccc1)C(=O)O` (stereo not drawn) came in with an LD5 in data set [2] greater than 245 µM.

In turn, `O=C(/C=C/c1ccc(O)c(O)c1)O[C@H](C(=O)O)[C@H](OC(=O)/C=C/c1ccc(O)c(O)c1)C(=O)O` [CHICORIC ACID] had an LD5 in data set [2] of 115 µM.

Turning to `O=C(O)C(O)C(O)C(=O)O` (stereo not drawn), the EC50 in data set [1] (setting [7]) is greater than 1000 µM. This compound returned an LD5 in data set [2] greater than 1000 µM.

Consider `O=C(OC(C(=O)O)C(OC(=O)c1cccc(O)c1O)C(=O)O)c1cccc(O)c1O` (stereo not drawn), for which the EC50 in data set [1] (setting [7]) is greater than 38 µM. Also, in data set [2], the LD5 is 19 µM. For the same compound, in data set [3], the IC50 worked out at 1.07 µM.

Take `O=C(/C=C/c1ccc(O)c(O)c1)OCCCCOC(=O)/C=C/c1ccc(O)c(O)c1`: in data set [1] (setting [7]), the EC50 is greater than 242 µM. Besides, the LD5 in data set [2] worked out at 121 µM. In data set [3], this compound came in with an IC50 greater than 10 µM.

For `O=C(OC(C(=O)O)C(OC(=O)c1cc(O)ccc1O)C(=O)O)c1cc(O)ccc1O` (stereo not drawn), the EC50 in data set [1] (setting [7]) is greater than 238 µM. This compound had an LD5 in data set [2] greater than 238 µM.

For `O=C(/C=C/c1cccc(O)c1)OC(C(=O)O)C(OC(=O)/C=C/c1cccc(O)c1)C(=O)O` (stereo not drawn), the EC50 in data set [1] (setting [7]) is greater than 283 µM. Further, the LD5 in data set [2] stood at 566 µM.

Turning to `O=C(/C=C/c1ccc(O)c(O)c1)OC1CCCCC1OC(=O)/C=C/c1ccc(O)c(O)c1` (stereo not drawn), in data set [1] (setting [7]), the EC50 was greater than 136 µM. The LD5 in data set [2] was found to be 63.6 µM. The compound also showed a concentration for half-maximal inhibition (IC50) in data set [3] greater than 10 µM.

Regarding `O=C(/C=C\c1ccc(O)c(O)c1)OC1CCCC(OC(=O)/C=C\c2ccc(O)c(O)c2)C1` (stereo not drawn), the EC50 in data set [1] (setting [7]) is greater than 68.2 µM. For the same compound, the LD5 in data set [2] amounted to 36.4 µM. Moreover, the IC50 in data set [3] came out at 1.63 µM.

Consider `O=C(OC(C(=O)O)C(OC(=O)c1ccc(F)c(F)c1)C(=O)O)c1ccc(F)c(F)c1` (stereo not drawn), for which, in data set [1] (setting [7]), the EC50 was greater than 59.2 µM. This compound returned an LD5 in data set [2] of 28.9 µM.

Take `O=C(/C=C/c1ccc(O)c(O)c1)OC1CCCC(OC(=O)/C=C/c2ccc(O)c(O)c2)C1` (stereo not drawn): the EC50 in data set [1] (setting [7]) is greater than 34.1 µM. In addition, the LD5 in data set [2] stood at 9.1 µM. In data set [3], this compound gave a concentration for half-maximal inhibition (IC50) of 1.8 µM.

With `O=C(CCc1ccc(O)c(O)c1)OC(C(=O)O)C(OC(=O)CCc1ccc(O)c(O)c1)C(=O)O` (stereo not drawn), the EC50 was 7.8 µM in data set [4], 8.4 µM in data set [1] and 31.2 µM in data set [6]. The compound further showed an LD5 in data set [2] greater than 263 µM. This compound also had an IC50 in data set [3] of 2.38 µM.

On to `O=C(/C=C/c1ccc(O)c(O)c1)OCC(OC(=O)/C=C/c1ccc(O)c(O)c1)C(=O)O` (stereo not drawn), for which the EC50 in data set [1] (setting [7]) is 2.3 µM. The compound further registered an LD5 in data set [2] of 145 µM. The half-maximal inhibitory concentration (IC50) in data set [3] worked out at 0.52 µM.

Consider `O=C(/C=C/c1ccc(O)c(O)c1)OCCCOC(=O)/C=C/c1ccc(O)c(O)c1`, for which the EC50 in data set [1] (setting [7]) is greater than 350 µM. This compound returned an LD5 in data set [2] of 117.5 µM. This compound also had an IC50 in data set [3] greater than 10 µM.

Turning to `O=C(OC(C(=O)O)C(OC(=O)c1ccc(O)c(O)c1)C(=O)O)c1ccc(O)c(O)c1` (stereo not drawn), the EC50 in data set [4] was 0.82 µM; in data set [5], greater than 52.5 µM; in data set [1], 0.95 µM. Also, in data set [2], the LD5 stood at 90 µM. This compound had an IC50 in data set [3] of 0.43 µM.

Source of the values: ChEMBL document CHEMBL1132572 (J Med Chem, 1999).
